Values joined by “and” are separate entries in the source; they are usually repeats but may differ in a detail not shown here. Equal values may be shown once. “Also recorded” adds a separate entry of the source. Read-outs that look alike come from different tables or passages of the source. Where only a bound is given, the exact number is not on record here.

As usually defined, the bioavailability is the share of a dose that reaches the circulation, judged against a reference dose that is usually intravenous. A lower bioavailability goes with little systemic uptake. The term half-life denotes the time needed for the level to fall by half in the phase considered. Broadly, the Cmax is the peak of the concentration-time curve.

Data set [1] relates to H5N1 strain A/Mallard/Bavaria/1/2006. Nature of the data set: microbe, parasite or virus in culture. The data set is classed as cell-based, influenza A virus. Conditions: for EC50: read-out: EC50 (concentration required to reduce the virus titer to 50%).
For data set [2] the following is noted: mouse, in vivo.
A short description of a further data set: in vivo. Conditions: mouse, po.
For data set [3] the following is noted: cited from earlier work.
Data set [4] concerns highly pathogenic influenza virus. Details: species or system C57BL/6 mice. Conditions: mouse, in vivo.
In data set [5] the test system is A/Regensburg/D6/2009 H1N1pdm09 strain.
The test system of data set [6] is caspase activation (PARP cleavage).
The subject of data set [7] is A/FPV/Bratislava/79 (H7N7) viral proteins M1, NP, NS1, PB1.
The subject of data set [8] is vRNP complexes of H5N1 A/Thailand/KAN-1/2004.
In data set [9] the test system is H5N1 influenza virus A/Mallard/Bavaria/1/2006.
Data set [10] concerns influenza virus strain A/FPV/Bratislava/79 (H7N7). Conditions: mouse.
Data set [11] relates to influenza virus strain (H5N1; MB1). Conditions: mouse, in vivo.

In the case of `CC(=O)Oc1ccccc1C(=O)O` [ASA, Acetylsalicylic acid], the “Antiviral effect on virus titers over time” value (shortened to “Antiviral effect … over time”) in data set [1] is “less potent compared to BAY 81-8781; also recorded: An antiviral effect was also found with ASA (gray triangles) and SA (open triangle) 24 h and 32 h post-infection which, however, was leveled-out at the 48 h time-point”. Further, the EC50 in data set [1] (Influenza A virus, H5N1, A549, in Anas platyrhynchos) was found to be 170 ± 50 µM. Moreover, in data set [2], the “AUC and Cmax, plasma compared to lung homogenate” value is “about four-fold higher in plasma”. Besides, in data set [2] (iv), the AUC is on record as 0.0781 mg⋅h/L, the Plasma clearance entry is listed as “high”, the Terminal half-lives result was “short” and the “Volume of distribution at steady state” value is “moderate”. Moreover, in [2] (po, 15 mg/kg), the AUC is reported as 0.0688 mg⋅h/L and the t1/2 was 4.54 min. This compound yielded a bioavailability in “in vivo” of approximately 10%. The bioavailability in “in vivo” (15 mg/kg) worked out at 10.3%. In “in vivo” (15 mg/kg, t1/2), the half-life is 8.64 min. For the same compound, the Stability in plasma entry in data set [3] is “not stable in plasma”.

For the compound salicylate, in [1], the “Antiviral effect … over time” value was “No antiviral effect; also recorded: An antiviral effect was also found with ASA (gray triangles) and SA (open triangle) 24 h and 32 h post-infection which, however, was leveled-out at the 48 h time-point”; the EC50 amounted to 700 ± 40 µM. Besides, in data set [2], the “AUC and Cmax, plasma compared to lung homogenate” value is listed as “about four-fold higher in plasma”; the “Cmax, plasma compared to lung” value was “about three-fold higher in plasma than in lung”. Also, in [2] (iv), the “AUC in plasma, SA compared to ASA” value is reported as “about 25 fold”; the AUCnorm came out at 5.28 kg⋅h/L; the “Cmax in plasma, SA compared to ASA” value was approximately 2.5 fold. In addition, in data set [2] (po), the AUC is 15.3 mg⋅h/L and the Cmax worked out at 12500 ng/mL.

Turning to “D,L-lysine acetylsalicylate ⋅ glycine [BAY 81-8781]”, in data set [1], the “Antiviral effect … over time” value was “strong and sustained reduction of virus titers at all time-points; also recorded: even stronger reduction of virus titers at all time-points”; the EC50 was found to be 160 ± 60 µM. In [4], the “Day of death (p.i.)” value is 8.8 days p.i. and 8.8 ± 1.3 days p.i; the “Delay of death of non-protected mice compared to solvent animals” value worked out at 2 days; the “Survival (survival/total)” value was 4/8; the “Weight loss and disease symptoms” value is “either showed no or only slight weight loss and marginal disease symptoms”. Also, in [5], the “Reduction of virus propagation” value is listed as “effective to reduce virus propagation”. The “TNFα induced activation of TRAIL mRNA” value in the data set on TRAIL mRNA expression was “significantly reduced”. Moreover, the “Cleavage of caspase substrate PARP” value in [6] is “reduces the cleavage of the major caspase substrate PARP”. In addition, the “Accumulation of viral proteins” value in [7] is reported as “does not impact accumulation of viral proteins”. In [8], the “Release of vRNPs from the nucleus” value was “strongly retained and accumulated in the nucleus”. In data set [9], the “Antiviral effect, compound present for 30 min or 1 h” value was “no antiviral effects were found”; the “Antiviral effect, compound present for 2 h or 4 h” value was “a dose dependent antiviral effect was found”; the Virus titer reduction is reported as more than 80%. The “EC50 in vivo (concentration of inhaled BAY 81-8781 solution)” value in data set [10] is 1.56% and 1.5%. In data set [10] (in vivo), the “Reduction of lung virus titers, oral route” value is reported as “no reduction of virus titers was found”. Besides, in data set [11], the “Disease progression (symptom score)” value is “rather moderate”; the “Mice protected from death” value was 87.5% and 62.5%; the “Mice protected from death (protected/total)” value was 5/8; the Weight loss entry is “only a moderate weight loss”.

The record behind these values is PMC5673638 (Frontiers in Microbiology, 2017).
